Bridge positions count the residues as written; N and C are the ends. Square brackets hold non-standard residues; d marks the D form. Peptide text beside a SMILES is read from it. * marks the point of attachment. Biotin = O=C1N[C@H]2[C@H](CS[C@H]2CCCCC(=O)*)N1; S5 = C=CCCC[C@](C)(N)C(=O)O; βAla = NCCC(=O)O
Legend:
CSL-responsive reporter = CSL-responsive reporter in transfected MOLT4 cells; format: cell-based; details: FIG. 12
Description: MOLT4 cells transfected with a CSL-responsive reporter were used to test whether stapled SAHN11 can interfere with Notch-mediated activation of transcription.

[1] = test system: Notch complex mediated transcription; assay: Beta-lactamase gene under CSL responsive promoter in T-ALL cells (MOLT4); format: cell-based; details: decrease similar to RNAi against Notch or lactamase, FIG. 22
Description: T-ALL cells (MOLT4) harboring a beta-lactamase gene under the control of a CSL responsive promoter was used to study the effect of SAHN1 and SAHN11 on Notch complex mediated transcription.

ICN and CSL = biological target: T1, ICN and CSL (Homo sapiens, UniProt P46531+Q06330); assay: Immunoprecipitation from T-ALL (KOPTK1) cell lysates; format: binding; details: FIG. 19
T1 construct: endogenous in cells; host or cells: KOPTK1 (T-ALL) cell lysates
T1 sequence (P46531 1754-2555 limits assumed): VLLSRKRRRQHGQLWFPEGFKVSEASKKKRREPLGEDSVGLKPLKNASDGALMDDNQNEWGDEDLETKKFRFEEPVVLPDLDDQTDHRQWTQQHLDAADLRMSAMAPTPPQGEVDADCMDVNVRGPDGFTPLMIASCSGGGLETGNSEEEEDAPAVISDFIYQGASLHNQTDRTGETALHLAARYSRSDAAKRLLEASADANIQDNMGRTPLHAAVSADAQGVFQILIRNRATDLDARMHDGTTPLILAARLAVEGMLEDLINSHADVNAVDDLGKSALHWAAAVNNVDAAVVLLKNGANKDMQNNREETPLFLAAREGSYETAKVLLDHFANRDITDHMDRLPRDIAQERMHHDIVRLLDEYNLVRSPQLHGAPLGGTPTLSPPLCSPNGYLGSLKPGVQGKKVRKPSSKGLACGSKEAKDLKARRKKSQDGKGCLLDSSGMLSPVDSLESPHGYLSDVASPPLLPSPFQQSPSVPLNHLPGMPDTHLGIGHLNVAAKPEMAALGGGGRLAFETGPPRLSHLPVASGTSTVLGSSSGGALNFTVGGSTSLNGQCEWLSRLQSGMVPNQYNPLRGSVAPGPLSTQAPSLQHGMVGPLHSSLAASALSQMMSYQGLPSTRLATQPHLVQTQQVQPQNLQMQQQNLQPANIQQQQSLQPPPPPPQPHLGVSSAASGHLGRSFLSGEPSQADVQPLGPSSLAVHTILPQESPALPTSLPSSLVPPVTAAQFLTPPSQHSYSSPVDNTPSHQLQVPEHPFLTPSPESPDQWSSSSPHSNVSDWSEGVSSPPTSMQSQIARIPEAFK
T1 sequence (Q06330 whole entry): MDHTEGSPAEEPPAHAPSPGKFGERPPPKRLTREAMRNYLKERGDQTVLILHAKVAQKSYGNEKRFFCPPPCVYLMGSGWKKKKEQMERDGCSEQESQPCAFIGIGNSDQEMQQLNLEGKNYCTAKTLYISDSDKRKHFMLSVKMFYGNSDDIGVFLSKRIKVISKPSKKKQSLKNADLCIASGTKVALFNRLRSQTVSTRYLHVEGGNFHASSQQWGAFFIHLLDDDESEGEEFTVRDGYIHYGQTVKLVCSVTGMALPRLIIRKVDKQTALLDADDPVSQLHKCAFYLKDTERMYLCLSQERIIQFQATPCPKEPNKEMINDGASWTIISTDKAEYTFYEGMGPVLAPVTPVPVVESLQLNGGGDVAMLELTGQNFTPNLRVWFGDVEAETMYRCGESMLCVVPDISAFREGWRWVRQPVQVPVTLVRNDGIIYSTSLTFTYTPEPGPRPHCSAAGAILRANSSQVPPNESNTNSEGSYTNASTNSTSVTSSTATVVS

TALL1 cells = assay: Viability of TALL1 cells; format: cell-based; details: FIG. 18
MOLT4 cells = assay: Viability of MOLT4 cells; format: cell-based; details: FIG. 14 and 17
HES1 = HES1 expression in T-ALL cells (MOLT4); format: cell-based; details: FIG. 23
Description: (§1) The results of this analysis are show in FIG. 23.

[2] = Circular dichroism spectra, alpha helicity; format: physicochemical; details: cross-linked vs not cross-linked, FIG. 5
Description: FIG. 4 is a schematic drawing and detailed structural depiction of a modified polypeptide having the sequence of REM-G1 (SAHN1).

HEY1 = HEY1 expression in T-ALL cells (MOLT4); format: cell-based; details: FIG. 23
Description: as §1

[3] = test system: neoplastic murine lymphocytes derived from transgenic mice harboring human Notch mutations
KOPTK1 cells = format: cell-based
Description: The results of this analysis are show in FIG. 25.

Cells = format: cell-based
Procedure: Automated quantitative immunofluorescence was used to determine the intracellular distribution of fluorophore-labeled stapled alpha helices. Cells were incubated with FITC-conjugated peptides SAHN1, SAHN2, or SAHN6; or control. At 16 hours measurements of cellular fluorescence were taken using epifluorescence microscopy. The results of these studies are shown in FIG. 10 in which each circle represents an individual cell and each column represents a treatment condition.
Automated quantitative immunofluorescence was also used to determine the intracellular distribution of fluorophore-labeled stapled alpha helices. Cells were incubated with FITC-conjugated peptides SAHN1, or unstapled SAHN1.

[4] = biological target: T2, ICN1 bound to immunoprecipitated MAML (Homo sapiens, UniProt P46531+Q06330); assay: Competition for ICN1 bound to immunoprecipitated MAML in T-ALL cellular lysates; format: binding; details: FIG. 20 and 21
T2 construct: endogenous in cells
T2 sequence (P46531 1754-2555 limits assumed): as the sequence (P46531 1754-2555 limits assumed) above
T2 sequence (Q06330 whole entry): as the sequence (Q06330 whole entry) above

[5] = test system: gamma secretase resistant T-ALL cells (MOLT4); assay: Apoptotic response in gamma secretase resistant T-ALL cells (MOLT4); format: cell-based; details: MOLT4, after 24 or 48 hours, FIG. 24
Description: The results of this analysis are show in FIG. 24.

ALL-SIL cells = assay: Viability of ALL-SIL cells; format: cell-based; details: FIG. 15

Row | pull down of both ICN and CSL (ICN and CSL) | alpha helical content (circular dichroism) [2] | IC50 (KOPTK1 cells) | competing away ICN1 bound to immunoprecipitated MAML [4] | SMILES | expression of the CSL-responsive reporter (CSL-responsive reporter) | transcription from CSL responsive promoter (beta-lactamase) [1] | viability of TALL1 cells (TALL1 cells) | viability of MOLT4 cells (MOLT4 cells) | expression of HES1 (HES1) | expression of HEY1 (HEY1) | cytotoxicity to neoplastic murine lymphocytes [3] | viability of KOPTK1 cells (KOPTK1 cells; FIG. 16) | effect of stapling on intracellular passage (Cells) | intracellular passage (cellular fluorescence) (Cells) | apoptotic response [5] | viability of ALL-SIL cells (ALL-SIL cells)
1 | can pull down both ICN and CSL |  |  |  | CC[C@H](C)[C@H](NC(=O)[C@H](CCCNC(=N)N)NC(=O)[C@H](CCCNC(=N)N)NC(=O)CCNC(=O)[C@H](CCCCNC(=O)CCCC[C@@H]1SC[C@@H]2NC(=O)N[C@@H]21)NC(C)=O)C(=O)N[C@@H](CCC(=O)O)C(=O)N[C@@H](CC(C)C)C(=O)N[C@@H](CS)C(=O)N[C@@H](CCCNC(=N)N)C(=O)N[C@@H](CCCNC(=N)N)C(=O)N[C@@H](Cc1c[nH]cn1)C(=O)N[C@@H](Cc1c[nH]cn1)C(=O)N[C@@]1(C)CCCC=CCCC[C@@](C)(C(=O)N[C@@H](CCCNC(=N)N)C(=O)N[C@@H](Cc2ccc(O)cc2)C(=O)N[C@@H](CCC(=O)O)C(=O)N[C@@H](C)C(=O)N[C@H](C(N)=O)C(C)C)NC(=O)[C@H](CCC(=O)O)NC(=O)[C@H](CS)NC(=O)[C@H]([C@@H](C)O)NC1=O [SAHN11] (Ac-K(Biotin)[βAla]RRIELCRRHH[S5]TCE[S5]RYEAV-NH2; staple 13-17; N-terminus assumed) | reduced expression of the CSL-responsive reporter in a dose-dependent manner | decreased transcription | reduced the viability of TALL1 cells | reduced the viability of MOLT4 cells |  |  |  |  |  |  |  | 
2 | can pull down both ICN and CSL | 96% | 8 µM | can compete away ICN1 | CC[C@H](C)[C@H](NC(=O)[C@H](CCCNC(=N)N)NC(=O)[C@H](CCCNC(=N)N)NC(=O)[C@H](CCCNC(=N)N)NC(=O)[C@H](CC(C)C)NC(=O)[C@H](CCCNC(=N)N)NC(=O)[C@H](CCC(=O)O)NC(=O)CCNC(C)=O)C(=O)N[C@@]1(C)CCCC=CCCC[C@@](C)(C(=O)N[C@@H](Cc2c[nH]cn2)C(=O)N[C@@H](Cc2c[nH]cn2)C(=O)N[C@@H](CO)C(=O)N[C@H](C(N)=O)[C@@H](C)O)NC(=O)[C@H](CCCNC(=N)N)NC(=O)[C@H](CS)NC(=O)[C@H](CC(C)C)NC1=O [SAHN1] (Ac-[βAla]ERLRRRI[S5]LCR[S5]HHST-NH2; staple 9-13) |  | decreased transcription |  |  | decrease expression of HES1 | decrease expression of HES1 and HEY1 | is cytotoxic to neoplastic murine lymphocytes | reduced the viability of KOPTK1 cells | stapling of the peptide did not, in this instance, appear to impact intracellular passage | exhibited significant intracellular passage | induces an apoptotic response | reduced the viability of ALL-SIL cells
